From patent US20100240754A1, “UNSATURATED FATTY AMINO ACID DERIVATIVES AND USE THEREOF IN DERMAL COSMETOLOGY” (Pierre Fabre Demo-Cosmetique, priority 2007, published 2010)
Where two headings read alike, the source gives them in different places.

Columns and labels:
production of IL8 [1] = assay: Production of interleukin 8 induced in keratinocytes by PMA and calcium ionophore A23187 (ELISA); format: cell-based; settings: for Inhibitory activity % of molecules evaluated on the production of IL8 / inhibition at 3 µg/mL: 3 μg/mL, keratinocytes, 60 min pre-incubation, PMA 1 μM + A23187 0.1 μM, 6 hours, percentage of activity/stimulated control; for inhibition at 3 µg/mL: Keratinocyte, read-out: Inhibitory activity % of molecules evaluated on the production of IL8; for anti-inflammatory potentialities (IL8 production), in words: summary of Table 2 data
Procedure: In this study conducted on 96-well plates, we evaluated the activity of amino-alkene acids, on the production of interleukin 8 induced at the keratinocyte by the phorbol ester PMA and the calcium ionophore A23187.
(§1) The suspension of keratinocytes in supplemented KSFM is distributed into plates of 96 wells (3.10^4 cells/well), and incubated for 16 hours at 37° C. in an atmosphere with 5% CO2. The keratinocytes are then rinsed with PBS in order to remove the non-adherent cells and then exposed to the products to be tested included in non-supplemented KSFM (which might interfere in the assay).
(§2) The tested culture concentration is 3 μg/mL. It was retained after a preliminary test for evaluating cytotoxicity (neutral red) and it is not cytotoxic.
For each treatment, 3 wells are produced. The cells are pre-incubated for 60 min with the products to be tested and then stimulated, in parallel with negative controls without any stimulant: Phorbol Myristate Acetate (PMA) 1 μM+calcium Ionophore (A23187) 0.1 μM.
Incubation for 6 hours at 37° C. in a humid air atmosphere containing 5% of CO2.
The culture media of each of the wells are recovered, centrifuged at 3,000 rpm and stored at −80° C.
Assay of the cytokines: IL8 is assayed by an immunoenzymatic method with an ELISA kit (Immunotech).
The results are gathered in Table 2 and are expressed in percentage of activity/stimulated control.

production of PG6KF1α = assay: Production of prostaglandin 6KF1α by keratinocytes stimulated with calcium ionophore A23187 (ELISA); format: cell-based; settings: for inhibition at 3 µg/mL: Keratinocyte, read-out: Inhibitory activity % of molecules evaluated on the production of PG6KF1α; for effective dose 45 (DE45), production of PG6KF1α: keratinocytes stimulated with A23187; for anti-inflammatory potentialities (PG6KF1α production), in words: summary of Table 1 data
Procedure: The prostaglandin PG6KF1 alpha, is one of the major metabolites produced by the stimulated keratinocyte, and representative of the modulation of the production of metabolites of the metabolism of arachidonic acid stemming from the cyclo-oxygenase route.
as §1, with “DMEM with 10% FCS” for “supplemented KSFM”, “in” for “into”, “6” for “96”, “(1.2 106” for “(3.10^4”, “eliminate” for “remove the”, “DMEM without FCS” for “non-supplemented KSFM”
as §2
For each treatment, 3 wells were produced. The cells were pre-incubated for 60 min with the products to be tested and then an agent stimulating the cascade of arachidonic acid, the calcium ionophore, is added for 5 hours: the calcium ionophore A23187 is used at a concentration of 1 μM.
After these 5 hours of culture, the culture media of each of the wells are recovered, centrifuged at 3,000 rpm and stored at −80° C.
The production of prostaglandin 6KF1α for each of the tests is measured with the Elisa kit EUROMEDEX.
The results are gathered in Table 1 and are expressed in percentage of activity/stimulated control.

B16-F10 line = assay: Synthesis of melanin, colorimetric assay, basal and after alpha MSH stimulation; format: cell-based, murine; settings: B16-F10; for inhibition at 30 µg/mL: Mus musculus, 30 μg/mL
Procedure: 6.1) The modulating effect of unsaturated fatty amino-acid derivatives on melanogenesis was analyzed. For this, a measurement of the synthesis of melanin by a colorimetric assay is carried out on a cell line of murine melanomas: the B16-F10 line.
The effect of the products is investigated in a basal situation and after stimulating melanogenesis by a MSH for determining the depigmenting power.
The level of extracellular and intracellular melanin is then measured by spectrophotometry at a wave length of 405 nm according to the procedure (Meun, Y. J. et al.). The amount of pigment is determined by a standard range of melanin and by analysis on the Microwin software package (Berthold Biotechnologies). An assay of total proteins is conducted for samples of intracellular melanin by the BCA-Copper method at 540 nm. The standard range is produced with a standard protein, BSA (Bovine Albumin Serum).

production of IL8 [2] = assay: Production of interleukin 8 induced in keratinocytes by PMA and calcium ionophore A23187 (ELISA); format: cell-based; settings: Keratinocyte; keratinocytes stimulated with PMA + A23187; read-out: effective dose 50 (DE50), production of IL8
[3] = 3 μg/mL, keratinocytes, 60 min pre-incubation, calcium ionophore A23187 1 μM for 5 hours, percentage of activity/stimulated control

Compound	Inhibitory activity % of molecules evaluated on the production of IL8 (production of IL8 [1])	inhibition at 3 µg/mL (production of PG6KF1α; [3]) [%]	inhibition at 3 µg/mL (production of IL8 [1]) [%]	melting point [°C]	anti-inflammatory potentialities (PG6KF1α production), in words (production of PG6KF1α)	further results
Cl.NCCCC/C=C/C(=O)O [Compound No. 4, (E)-7-amino-hept-2-enoic acid]	~	18	–	–	–	–
NCCC/C=C(/F)C(=O)O [Compound No. 2, (E)-6-amino-2-fluoro-hex-2-enoic acid]	~	–	–	–	–	Inhibitory activity % of molecules evaluated on the production of PG6KF1α (production of PG6KF1α; [3]): ~
Cl.NCCCCCCCCCCC/C=C/C(=O)O [Compound No. 11, (E)-14-amino-tetradec-2-enoic acid]	–	40	22	153	anti-inflammatory potentialities	anti-inflammatory potentialities (IL8 production), in words (production of IL8 [1]): anti-inflammatory potentialities; effect on the synthesis of melanin, in words (B16-F10 line; 10 μg/mL): without any effect; inhibition at 30 µg/mL (B16-F10 line; read-out: inhibition of the amount of extra-cellular melanin): 30%; inhibition at 30 µg/mL (B16-F10 line; read-out: inhibition of the amount of intra-cellular melanin): ~45%; EC50 (production of IL8 [2]): 11 µg/mL; effective dose 45 (DE45), production of PG6KF1α (production of PG6KF1α): 10 µg/mL
NCCC/C=C(\F)C(=O)O [compound 3, (Z)-6-amino-2-fluoro-hex-2-enoic acid]	~	22	–	–	–	–
Cl.NCCC/C=C/C(=O)O [Compound No. 1, (E)-6-amino-hex-2-enoic acid]	~	< 0	–	–	–	–
Cl.NCCCCCC/C=C/C(=O)O [Compound No. 8, (E)-9-amino-non-2-enoic acid]	–	8	14	104	–	–
NCCCC/C=C(\F)C(=O)O [compound 6, (Z)-7-amino-2-fluoro-hept-2-enoic acid]	–	25	< 0	–	–	increase of the amount of intracellular melanin (B16-F10 line; 3, 10 and 30 μg/mL): about 100%
Cl.NCCCCC/C=C/C(=O)O [Compound No. 7, (E)-8-amino-oct-2-enoic acid]	~	36	–	–	anti-inflammatory potentialities	–
Cl.NCCCCCCC=C(F)C(=O)O [Compound No. 9, 9-amino-2-fluoro-non-2-enoic acid]	–	17	20	120	–	anti-inflammatory potentialities (IL8 production), in words (production of IL8 [1]): anti-inflammatory potentialities
NCCCCC=C(F)C(=O)O [Compound No. 5, (Z+E)-7-amino-2-fluoro-hept-2-enoic acid]	–	41	< 0	–	anti-inflammatory potentialities	pigmenting effect, in words (B16-F10 line): weaker than that of molecule No. 6; effective dose 45 (DE45), production of PG6KF1α (production of PG6KF1α): 25 µg/mL
Cl.NCCCCCCCCCCCC=C(F)C(=O)O [Compound No. 10, 14-amino-2-fluoro-tetradec-2-enoic acid]	–	38	8	148.5	anti-inflammatory potentialities	–
